How the values were obtained:
influenza strain G70C = format: cell-based
[1] = system: NWS/G70C influenza A virus

Substance | Lowest Concentration (μM of GG167 units) that Inhibited Agglutination, G70C (influenza strain G70C) | amount of virus clearly detected [1] | compound concentration giving the best result [1] | detection signal at higher concentrations of compound [1] | detection signal at lower concentrations [1]
Fetuin | 0.73 µM |  |  |  | 
GG167-Bovine Serum Albumin-Biotin conjugate [Compound 3a] |  | 10^6 pfu | 0.1 µM | the signal was weaker | the detection signal was also weaker
